Measurements published in US20070032471A1, “Active substance combination comprising a 2,5-dihydroxybenzenesulfonic compound and a potassium ion channel modulator” (LABORATORIOS DEL DR. ESTEVE S.A., priority 2003, published 2007).

Legend:
[1] = system: human penile resistance arteries; assay: Effect of calcium dobesilate on relaxation induced by K(ATP)-channel activation (pinacidil) in human penile arteries; conditions: calcium dobesilate 10 μM for 30 min; norepinephrine-contracted arteries; pinacidil 1 nM to 1 mM
Method: (§1) Penile small arteries, […] arteries (lumen diameter 150-400 μm), which are the terminal branches of deep penile arteries, are dissected by carefully removing the adhering trabecular tissue, and arterial ring segments (2 mm long) and are subsequently mounted on two 40 μm wires on microvascular Halpern-Mulvany myographs (J. P. Trading, Aarhus, Denmark) for isometric tension recordings. The vessels are allowed to equilibrate for 30 min in physiological salt solution (PSS) of the following composition (mmol/l): NaCl 119, KCl 4.6, CaCl2 1.5, MgCl2 1.2, NaHCO3 24.9, glucose 11, KH2PO4 1.2, EDTA 0.027 at 37° C. continuously bubbled with 95% 02/5% CO2 mixture to maintain a pH of 7.4. Passive tension and internal circumference of vascular segments when relaxed in situ under a transmural pressure of 100 mmHg (L100), are determined. […] The preparations are then exposed to 125 mM K^+ (KPSS, equimolar substitution of […] in PSS) and the contractile response is measured. […] At this time, responses to pinacidil are again evaluated in NE-contracted arteries. […] Relaxation responses are expressed as percentage of total relaxation (loss in tone) induced by the addition of 0.1 mmol/l papaverine HCl to the chambers at the end of the experiment. All data are expressed as mean±standard error. […]

[2] = system: human penile resistance arteries; assay: Effect of calcium dobesilate on relaxation induced by Ca2+-activated K+-channel activation (NS1619) in human penile arteries; conditions: calcium dobesilate 10 μM for 30 min; norepinephrine-contracted arteries; NS1619 1 nM to 10 μM
Method: as §1, with “NS1619” for “pinacidil”

diabetic rats = assay: Erectile response to cavernosal nerve electrical stimulation in anaesthetized diabetic rats; assay type: in vivo, rat; conditions: administered alone, intravenous administration
Method: The in-vivo activity of the active substance combination is tested as described in the reference of Saénz Tejada et al. in International Journal of Impotence Research 2003, 15, 90-93 under “Methods—Erectile responses to cavernosal nerve stimulation in anaesthetized rats”, which is hereby incorporated by reference and forms part of the disclosure. The erectile response to cavemosal nerve electrical stimulation in anaesthetized diabetic rats was determined as described above.

| SMILES | potentiation of relaxation induced by activation of K(ATP) channels with pinacidil [1] | potentiation of relaxant responses induced by K(Ca) channel activation [2] | erectile response (diabetic rats; 10 mg/kg) | erectile response (diabetic rats; 0.3 mg/kg or 5 mg/kg) |
| --- | --- | --- | --- | --- |
| O=S(=O)(O)c1cc(O)ccc1O [calcium dobesilate, calcium 2,5-dihydroxybenzenesulfonate] | significantly potentiates | strongly potentiates | do not modify the erectile response | – |
| O=c1[nH]c2cc(C(F)(F)F)ccc2n1-c1cc(C(F)(F)F)ccc1O [NS1619, 1-[2-Hydroxy-5-(trifluoromethyl)phenyl]-5-(trifluoromethyl)-1,3-dihydro-2H-benzimidazol-2-one] | – | – | – | do not modify the erectile response |
